Measurements from publication PMC7766159, “Novel Psychoactive Phenethylamines: Impact on Genetic Material” (International Journal of Molecular Sciences, 2020).

Key:
TK6 cells [1] = assay: Cytostasis analysis (Relative Population Doubling, Guava ViaCount); type: cell-based, human; conditions: for Relative Population Doubling (RPD): 26 h treatment, vs untreated control C (-) = 100%, mean ± SEM; for concentrations that caused an RPD value well above 55 ± 5% (OECD threshold): 26 h, tested 6.25-75 µM
Description: In addition, to make the genotoxicity test reliable, it is necessary to check the cellular proliferation in order to verify that a sufficient number of cells has undergone mitosis and so transmitted the genetic damage suffered to the daughter cells. For this purpose, the OECD recommends the measurement of the Relative Population Doubling (RPD) to estimate the cytostasis and, analogously to the cytotoxicity, establishes a threshold at most equal to 55 ± 5% [45].
(§1) In all experiments, aliquots of 2 × 10^5 of TK6 cells were treated with increasing concentrations of phenethylamines from 0 to 75 µM and incubated for 26 h, corresponding to two replication cycles for the analysis of cytotoxicity, cytostasis, apoptosis, and genotoxicity, while for the analysis of ROS, 1 h of treatment was performed.
In parallel, always using the Guava ViaCount Reagent, the number of cells seeded at time 0 and that measured at the end of the phenethylamines treatment time was used to check the correct replication in the control cultures and to compare it to that measured in the treated cultures by the RPD, calculated as the following formula [46, 47]: RPD= (No. of Population doublings in treated cultures)/(No. of Population doublings in control cultures) × 100
Similarly to cytotoxicity, the cytostasis was checked in order to verify that cell proliferation respected the threshold established by the OECD guideline (55 ± 5%).

TK6 cells [2] = assay: Cytotoxicity analysis (Guava ViaCount, cell viability); type: cell-based, human; conditions: 26 h; for concentration up to which no cytotoxicity and cytostasis was induced: Guava ViaCount assay
Description: In the preliminary phase of the research, we determined the concentrations to be used in the subsequent experiments aimed at evaluating the potential genotoxicity of different molecules under study. First, we assessed the 2C-H, 2C-I, 2C-B, 25B-NBOMe, and MDMA-induced cytotoxicity after 26 h treatment (time required by TK6 cells to carry out two cell cycles) by measuring the percentage of live cells at the different concentrations tested (6.25, 12.5, 25, 35, 50, 75 µM). This value was normalized on the one obtained in the untreated control cultures C (-) equal to 100% in order to check whether the cellular viability complied with the OECD threshold (equal to 55 ± 5%).
as §1
Cytotoxicity assay was performed as previously described by Lenzi et al.. Briefly, at the end of the phenethylamines treatment time, 1.5 × 10^5 cells were stained with Guava ViaCount Reagent. The reagent contains the Propidium Iodide (PI) that allows us to discriminate viable from dead cells based on different permeability to DNA-binding dye.
180 μL of reagent were added to 20 μL of cell suspension and incubated for 5 min at room temperature (RT). After, a total of 1000 events were acquired and analyzed by Guava ViaCount software.
The results obtained from the samples treated with different concentrations of phenethylamines were normalized on those obtained from the untreated control cultures, accounted equal to 100%.

TK6 cells [3] = assay: Genotoxicity analysis (micronucleus frequency, automated flow cytometric protocol); type: cell-based, human; conditions: for MNi frequency fold increase: vs C (-); for relative genotoxic potency: comparison within the series
Description: as §1
The analysis of the MNi frequency was performed using a new automated flow cytometric protocol that we recently developed in our laboratory. The detailed protocol is described in the paper by Lenzi et al. and was used in our previous publication to analyze the genotoxicity of some synthetic cannabinoids.
Briefly, at the end of the phenethylamines treatment time, 7 × 10^5 cells were collected and incubated with 7-AAD at RT for 5 min, after which the cells were lysed and stained with SYTOX Green for 1 h. After, a total of 10,000 nuclei, derived from viable and proliferating cells (7-AAD negative), and the corresponding number of micronuclei were acquired. The discrimination between nuclei and MNi occurs on the basis of the different size analyzed by Forward Scatter (FSC), and the different intensity of green fluorescence (SYTOX Green).
The MNi frequencies (number of MNi/10,000 nuclei) recorded in treated cultures were normalized on those recorded in the untreated control cultures, accounted equal to 1 and expressed as MNi frequency fold increase.
As recommended by OECD guideline 487, we used MMC and VINB as positive controls, being known clastogen and aneuploidogen agents, respectively.

TK6 cells [4] = assay: Apoptosis analysis (Guava Nexin Assay); type: cell-based, human; conditions: 26 h
Description: as §1
The percentage of apoptotic cells was evaluated by the Guava Nexin Assay according to the procedure by Lenzi et al..
Briefly, at the end of the phenethylamines treatment time, the percentage of apoptotic cells was assessed using the Guava Nexin Reagent. The reagent contains the 7-aminoactinomycin D (7-AAD), a cell non-permeant dye, that allows discrimination between live and dead cells and the Annexin-V-PE that allows the identification of apoptotic cells by binding the phosphatidylserine on the cell surface.
100 μL of reagent were added to 100 μL of cell suspension (~1 × 10^5 cells) and incubated for 20 min at RT. After, a total of 2000 events were acquired and analyzed by Guava Nexin software.
The apoptotic cell percentages recorded in the cultures treated with phenethylamines different concentrations were normalized on those recorded in the untreated control cultures, accounted equal to 1 and expressed as apoptotic fold increase.

HepG2 cells = test system: HepG2 cells; parameters: method as in PMID 31068823; conditions: cited from earlier work
primary rat hepatocytes = test system: primary rat hepatocytes; parameters: method as in PMID 27255387; conditions: 24 h; cited from earlier work
C2C12 myoblast cells = test system: C2C12 myoblast cells; parameters: method as in PMID 30925718; conditions: concentrations 30 times higher than in this study, 24 h; cited from earlier work
[5] = test system: undifferentiated and differentiated human SH-SY5Y cells; parameters: method as in PMID 28067045; conditions: cited from earlier work
TK6 cells [6] = assay: ROS analysis (DCFH2-DA fluorescence); type: cell-based, human; conditions: 1 h; 35 µM for 2C-H, 2C-I and MDMA, 12.5 µM for 2C-B and 25B-NBOMe; vs C (-) equal to 1
Description: Lastly, in order to identify a possible mechanism of action at the basis of the genotoxic activity, TK6 cells were treated for 1 h with the highest concentration tested for each substance: 35 µM for 2C-H, 2C-I and MDMA, and 12.5 µM for 2C-B and 25B-NBOMe, and then the possible ROS induction was measured.
as §1
At the end of the phenethylamines treatment time, 2 × 10^5 cells were centrifuged, resuspended in PBS1X to measure intracellular ROS level and stained at 37 °C in the dark for 20 min with 2′,7′-dichlorodihydrofluorescin diacetate (DCFH2-DA). After, a total of 5000 events, derived from viable cells, were acquired and analyzed using Guava Incyte software.
The fluorescence intensity of 2′,7′-dichlorofluorescin (DCF) (which forms in cells in the presence of ROS) recorded in treated cultures was normalized on those recorded in the untreated control cultures, accounted equal to 1 and expressed as a ROS fold increase.

TK6 cells [7] = test system: TK6 cells; parameters: method as in PMID 27637481; conditions: CYP1A1, 1B1 and 1A2 not expressed; cited from earlier work
SH-SY5Y = test system: SH-SY5Y; parameters: method as in PMID 28067045, PMID 30925718, PMID 28527032; conditions: 2–24 h treatment, concentration-dependent (1000–3000 μM); cited from earlier work
HepG2 = test system: HepG2; parameters: method as in PMID 28645576; conditions: 24 h treatment; cited from earlier work
[8] = vs untreated control C (-) equal to 1, tested concentrations
[9] = both tested concentrations, 6.25 µM and 12.5 µM, 26 h

SMILES	Relative Population Doubling (RPD) (TK6 cells [1]; 6.25 µM)	Relative Population Doubling (RPD) (TK6 cells [1]; 12.5 µM)	Relative Population Doubling (RPD) (TK6 cells [1]; 25 µM)	Relative Population Doubling (RPD) (TK6 cells [1]; 35 µM)	Relative Population Doubling (RPD) (TK6 cells [1]; 50 µM)	Relative Population Doubling (RPD) (TK6 cells [1]; 75 µM)	concentrations that caused an RPD value well above 55 ± 5% (OECD threshold) (TK6 cells [1])	other results
COc1ccc(OC)c(CCN)c1 [2C-H, 2,5-dimethoxyphenethylamine]	97.5% ± 0.9	81.1% ± 1.8	85.0% ± 2.4	74.0% ± 1.8	34.1% ± 1.2	13.0% ± 1.5	up to 35 µM	concentration up to which no cytotoxicity and cytostasis was induced (TK6 cells [2]): up to 35 µM; MNi frequency fold increase (TK6 cells [3]; 35 µM, 26 h): statistically significant increase; apoptosis fold increase (TK6 cells [4]; [8]): never reached a doubling
CC(N)Cc1ccc(Cl)cc1 (stereo not shown) [4-chloroamphetamine]								mitochondrial superoxide levels (HepG2 cells): increase mitochondrial superoxide levels
CNC(C)Cc1ccc2c(c1)OCO2 (stereo not shown) [MDMA, 3,4-methylenedioxy-methamphetamine, reference compound]	96.0% ± 1.0	96.0% ± 0.8	98.7% ± 0.9	98.0% ± 1.5	96.0% ± 1.2	91.9% ± 1.3	all the concentrations tested	cytotoxic and cytostatic effect (TK6 cells [2]; all concentrations tested (6.25-75 µM)): did not show a cytotoxic and cytostatic effect; ROS levels (primary rat hepatocytes): increase of ROS levels; mitochondrial superoxide production (C2C12 myoblast cells): increase in the mitochondrial superoxide production; MNi frequency fold increase (TK6 cells [3]; 25 and 35 µM, 26 h): did not increase the MNi frequency in any case; genotoxicity (MN test outcome) (TK6 cells [3]; 26 h, without metabolic activation): not genotoxic; production of ROS [5]: unable to trigger the production of ROS; apoptosis fold increase (TK6 cells [4]; [8]): never reached a doubling; ROS fold increase (mean fluorescence intensity) (TK6 cells [6]): did not highlight any ROS level increase
COc1cc(CCN)c(OC)cc1I [2C-I, 2,5-Dimethoxy-4-iodophenethylamine]	90.9% ± 0.7	89.6% ± 2.2	72.5% ± 2.0	63.9% ± 1.6	54.8% ± 0.9	30.8% ± 1.0	up to 35 µM	concentration up to which no cytotoxicity and cytostasis was induced (TK6 cells [2]): up to 35 µM; MNi frequency fold increase (TK6 cells [3]; 35 µM, 26 h): statistically significant increase; apoptosis fold increase (TK6 cells [4]; [8]): never reached a doubling
c1ccc2c(c1)cc1ccc3cccc4ccc2c1c34 [benzo [a] pyrene]								micronuclei induction (TK6 cells [7]): failed to induce micronuclei
CNC(C)C(=O)c1ccc2c(c1)OCO2 (stereo not shown) [methylone]								superoxide levels (SH-SY5Y): increase in superoxide levels
CNC(C)C(=O)c1ccc(C)cc1 (stereo not shown) [mephedrone]								concentration that increased O2•− levels (HepG2): 1 mM
CCCC(C(=O)c1ccc2ccccc2c1)N1CCCC1 (stereo not shown) [naphyrone]								concentration that increased O2•− levels (HepG2): 0.2 mM
CCCC(C(=O)c1ccccc1)N1CCCC1 (stereo not shown) [αPVP]								superoxide levels (SH-SY5Y): increase in superoxide levels
COc1cc(CCN)c(OC)cc1Br [2C-B, 2,5-dimethoxy-4-bromophenethylamine]	95.9% ± 0.7	93.1% ± 2.1	69.7% ± 1.6	63.1% ± 1.6	10.0% ± 1.8	0.0%	up to 35 µM	concentration up to which no cytotoxicity and cytostasis was induced (TK6 cells [2]): up to 35 µM; MNi frequency fold increase (TK6 cells [3]; [9]): increased at both the tested concentrations; relative genotoxic potency (TK6 cells [3]): stronger genotoxic agents than 2C-I and 2C-H; apoptosis fold increase (TK6 cells [4]; 25 µM and 35 µM, vs C (-)): statistically significant increase
COc1cc(CCNCc2ccccc2OC)c(OC)cc1Br [25B-NBOMe, 4-bromo-2,5-dimethoxy-N-[(2-methoxyphenyl)methyl]-benzeneethanamine]	86.4% ± 1.3	81.2% ± 2.0	50.0% ± 0.8	1.0% ± 0.2	0.0%	0.0%	up to 12.5 µM	concentration up to which no cytotoxicity and cytostasis was induced (TK6 cells [2]): up to 12.5 µM; MNi frequency fold increase (TK6 cells [3]; [9]): increased at both the tested concentrations; relative genotoxic potency (TK6 cells [3]): stronger genotoxic agents than 2C-I and 2C-H; apoptosis fold increase (TK6 cells [4]; [8]): never reached a doubling
CCCC(C(=O)c1ccc2c(c1)OCO2)N1CCCC1 (stereo not shown) [MDPV]								superoxide levels (SH-SY5Y): increase in superoxide levels; concentration that increased O2•− levels (HepG2): 2 mM
CC(N)Cc1ccccc1 (stereo not drawn) [amphetamine, α-methylphenylethylamine]								mitochondrial superoxide levels (HepG2 cells): increase mitochondrial superoxide levels
CC(N)Cc1ccc(F)cc1 (stereo not shown) [4-fluoroamphetamine, 4-Fluoroamphetamine]								mitochondrial superoxide levels (HepG2 cells): increase mitochondrial superoxide levels
